Measured values from PubChem BioAssay AID1919010 (Molecular Pharmacology Branch, DTP, NCI, 2023).

Tested on: Hs578T complex spheroid growth, percent test/control
Experiment: Anticancer human tumor Hs578T cell line growth inhibition [AhR];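 note: luminescent viability signal as a proxy for spheroid growth; spheroids exposed to agents for one week after three days of growth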
Conditions: for IC50: curve of first compound; for viability, T/C: stronger effect = lower value
How it was run: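 Complex tumor spheroids co-cultured with HUVEC and human MSC stroma; AhR antagonists tested in combination with standard-of-care and investigational agents. Top concentration at or near clinical Cmax (else 10 microM), half-log dilutions; growth expressed as percent test/control.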

[1] = second compound 0.1 µM, first compound 0.0316 µM
[2] = second compound 0.1 µM, first compound 0.1 µM
[3] = second compound 0.1 µM, first compound 0.316 µM
[4] = second compound 0.1 µM, first compound 1 µM
[5] = second compound 0.1 µM, first compound 3.16 µM
[6] = second compound 0.1 µM, first compound 10 µM
[7] = second compound 0.316 µM, first compound 0.0316 µM
[8] = second compound 0.316 µM, first compound 0.1 µM
[9] = second compound 0.316 µM, first compound 0.316 µM
[10] = second compound 0.316 µM, first compound 1 µM
[11] = second compound 0.316 µM, first compound 3.16 µM
[12] = second compound 0.316 µM, first compound 10 µM
[13] = second compound 1 µM, first compound 0.0316 µM
[14] = second compound 1 µM, first compound 0.1 µM
[15] = second compound 1 µM, first compound 0.316 µM
[16] = second compound 1 µM, first compound 1 µM
[17] = second compound 1 µM, first compound 3.16 µM
[18] = second compound 1 µM, first compound 10 µM
[19] = second compound 3.16 µM, first compound 0.0316 µM
[20] = second compound 3.16 µM, first compound 0.1 µM
[21] = second compound 3.16 µM, first compound 0.316 µM
[22] = second compound 3.16 µM, first compound 1 µM
[23] = second compound 3.16 µM, first compound 3.16 µM
[24] = second compound 3.16 µM, first compound 10 µM
[25] = second compound 10 µM, first compound 0.0316 µM
[26] = second compound 10 µM, first compound 0.1 µM
[27] = second compound 10 µM, first compound 0.316 µM
[28] = second compound 10 µM, first compound 1 µM
[29] = second compound 10 µM, first compound 3.16 µM
[30] = second compound 10 µM, first compound 10 µM

SMILES | IC50 (second compound 0.1 µM) [µM] | IC50 (second compound 0.316 µM) [µM] | IC50 (second compound 1 µM) [µM] | IC50 (second compound 3.16 µM) [µM] | IC50 (second compound 10 µM) [µM] | viability, T/C [1] [%] | viability, T/C [2] [%] | viability, T/C [3] [%] | viability, T/C [4] [%] | viability, T/C [5] [%] | viability, T/C [6] [%] | viability, T/C [7] [%] | viability, T/C [8] [%] | viability, T/C [9] [%] | viability, T/C [10] [%] | viability, T/C [11] [%] | viability, T/C [12] [%] | viability, T/C [13] [%] | viability, T/C [14] [%] | viability, T/C [15] [%] | other results
Nc1ccccc1NC(=O)c1ccc(CNC(=O)OCc2cccnc2)cc1 + Cc1ccccc1N=Nc1ccc(NC(=O)c2ccnn2C)c(C)c1 | 1.32 | 1.3 | 1.48 | 1.48 | 1.32 | 100 | 90.9 | 85.2 | 62.2 | 16.1 | 0.74 | 100 | 86.2 | 82.5 | 62.1 | 16.4 | 1.06 | 97.6 | 95.2 | 95.5 | viability, T/C [16]: 66.4%; viability, T/C [17]: 17.6%; viability, T/C [18]: 1.6%; viability, T/C [19]: 89.5%; viability, T/C [20]: 79.6%; viability, T/C [21]: 93.3%; viability, T/C [22]: 66.2%; viability, T/C [23]: 16.9%; viability, T/C [24]: 1.24%; viability, T/C [25]: 61%; viability, T/C [26]: 62.5%; viability, T/C [27]: 64.9%; viability, T/C [28]: 59.5%; viability, T/C [29]: 19.6%; viability, T/C [30]: 1.69%
Nc1ccn(C2OC(CO)C(O)C2(F)F)c(=O)n1 (stereo not given) + Cc1ccccc1N=Nc1ccc(NC(=O)c2ccnn2C)c(C)c1 | 4.31 | 3.74 | > 10 | < 0.0316 | < 0.0316 | 55.6 | 48.1 | 52.5 | 49.2 | 54 | 47.9 | 54 | 44.9 | 53.9 | 49.8 | 49.9 | 50 | 61 | 52 | 49.1 | viability, T/C [16]: 46.9%; viability, T/C [17]: 48.1%; viability, T/C [18]: 56.8%; viability, T/C [19]: 48.7%; viability, T/C [20]: 47.3%; viability, T/C [21]: 47.4%; viability, T/C [22]: 47.9%; viability, T/C [23]: 45.9%; viability, T/C [24]: 44.6%; viability, T/C [25]: 45.1%; viability, T/C [26]: 46.1%; viability, T/C [27]: 35.6%; viability, T/C [28]: 36.2%; viability, T/C [29]: 37%; viability, T/C [30]: 41.4%
O=C(c1cc(Cc2n[nH]c(=O)c3ccccc23)ccc1F)N1CCN(C(=O)C2CC2)CC1 + Cc1ccccc1N=Nc1ccc(NC(=O)c2ccnn2C)c(C)c1 | > 10 | > 10 | > 10 | > 10 | > 10 | 96.8 | 104 | 109 | 101 | 96.9 | 80.9 | 101 | 107 | 100 | 101 | 88.2 | 72.1 | 104 | 109 | 104 | viability, T/C [16]: 99.6%; viability, T/C [17]: 104%; viability, T/C [18]: 81.3%; viability, T/C [19]: 96.9%; viability, T/C [20]: 97.7%; viability, T/C [21]: 94.9%; viability, T/C [22]: 96.8%; viability, T/C [23]: 85.9%; viability, T/C [24]: 72.3%; viability, T/C [25]: 66.8%; viability, T/C [26]: 70.7%; viability, T/C [27]: 76.5%; viability, T/C [28]: 69.3%; viability, T/C [29]: 67.6%; viability, T/C [30]: 63.5%
